According to US8557818B2, “Compounds useful as protein kinase inhibitors” (Vertex Phamaceuticals Incorporated, priority 2006, dated 2013):

The compounds below were run against PLK1 (Homo sapiens, UniProt P53350) (assay: PLK1 Inhibition Assay 1 (radioactive-phosphate incorporation assay)). Details: Ki(app), [γ-33P]ATP 350 μM, peptide 450 μM, 1 nM PLK1 for values of <1 nM.
Assay type: biochemical
Method: Compounds of the present invention are evaluated as inhibitors of human PLK using the following assays.
Compounds were screened for their ability to inhibit PLK1 using a radioactive-phosphate incorporation assay. Assays were carried out in a mixture of 25 mM HEPES (pH 7.5), 10 mM MgCl2, 0.1% BSA, and 2 mM DTT. Final substrate concentrations were 150 μM (350 μM for determining values of <1 nM) [γ-33P]ATP (115 mCi 33P ATP/mmol ATP, Amersham Pharmacia Biotech/Sigma Chemicals) and 300 μM (450 μM for determining values of <1 nM) peptide (KKKISDELMDATFADQEAK)[SEQ ID:1]. Assays were carried out at 25° C. in the presence of 4 nM (1 nM for determining values of <1 nM) PLK1. An assay stock buffer solution was prepared containing all of the reagents listed above, with the exception of ATP and the test compound of interest. 30 μL of the stock solution was placed in a 96 well plate followed by addition of 2 μL of DMSO stock containing serial dilutions of the test compound (typically starting from a final concentration of 10 μM with 2-fold serial dilutions) in duplicate (final DMSO concentration 5%). The plate was pre-incubated for 10 minutes at 25° C. and the reaction initiated by addition of 8 μL [γ-33P]ATP (final concentration 150 μM (350 μM for determining values of <1 nM))).
The reaction was stopped after 90 minutes (240 minutes for determining values of <1 nM) by the addition of 100 μL 0.14M phosphoric acid. A multiscreen phosphocellulose filter 96-well plate (Millipore, Cat no. MAPHN0B50) was pretreated with 100 μL 0.2M phosphoric acid prior to the addition of 125 μL of the stopped assay mixture. The plate was washed with 4×200 μL 0.2M phosphoric acid. […]
After removing mean background values for all of the data points, Ki(app) data were calculated from non-linear regression analysis of the initial rate data using the Prism software package (GraphPad Prism version 3.0cx for Macintosh, GraphPad Software, San Diego Calif., USA).

PLK1, sequence (P53350 whole entry): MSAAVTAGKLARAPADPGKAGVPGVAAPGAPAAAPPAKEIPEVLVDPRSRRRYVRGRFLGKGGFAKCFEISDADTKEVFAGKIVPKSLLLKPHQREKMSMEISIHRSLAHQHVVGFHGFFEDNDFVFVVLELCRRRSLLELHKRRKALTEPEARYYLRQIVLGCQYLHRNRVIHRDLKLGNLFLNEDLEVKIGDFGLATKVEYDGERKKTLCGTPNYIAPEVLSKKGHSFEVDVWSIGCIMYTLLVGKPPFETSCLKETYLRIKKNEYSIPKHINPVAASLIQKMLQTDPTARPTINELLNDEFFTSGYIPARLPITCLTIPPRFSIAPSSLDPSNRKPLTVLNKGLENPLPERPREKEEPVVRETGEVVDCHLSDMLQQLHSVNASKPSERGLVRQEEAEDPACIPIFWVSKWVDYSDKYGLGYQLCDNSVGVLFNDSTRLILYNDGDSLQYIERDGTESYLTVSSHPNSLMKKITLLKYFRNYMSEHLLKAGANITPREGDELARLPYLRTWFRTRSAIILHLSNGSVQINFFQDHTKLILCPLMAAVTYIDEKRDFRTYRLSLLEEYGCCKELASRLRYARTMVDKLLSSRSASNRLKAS

Ki, < 1 nM:
CC[C@@H]1c2cncn2-c2cnc(Nc3ccc(C(=O)NC)cc3OC)nc2N1C1CCCC1 [Compound I-4, (R)-4-(5-cyclopentyl-6-ethyl-5,6-dihydroimidazo[1,5-f]pteridin-3-ylamino)-3-methoxy-N-methylbenzamide]
CC[C@@H]1c2c(C(=O)O)ncn2-c2cnc(Nc3ccc(C(=O)NC)cc3OC)nc2N1C1CCCC1 [Compound I-2, (R)-3-(4-(methylcarbamoyl)-2-methoxyphenylamino)-5-cyclopentyl-6-ethyl-5,6-dihydroimidazo[1,5-f]pteridine-7-carboxylic acid]
CC[C@@H]1c2cncn2-c2cnc(Nc3ccc(C(=O)NC4CC4)cc3OC)nc2N1C1CCCC1 [Compound I-6, (R)-4-(5-cyclopentyl-6-ethyl-5,6-dihydroimidazo[1,5-f]pteridin-3-ylamino)-N-cyclopropyl-3-methoxybenzamide]
